Among the data in ChEMBL document CHEMBL1129306, “3-((4-(4-Chlorophenyl)piperazin-1-yl)-methyl)-1H-pyrrolo-2,3-b-pyridine: an antagonist with high affinity and selectivity for the human dopamine D4 receptor” (J Med Chem, 1996) are Ki values, retold here.

For one test, the target named is T1, D(4) dopamine receptor (Homo sapiens, UniProt P21917).
T1 sequence (P21917 whole entry): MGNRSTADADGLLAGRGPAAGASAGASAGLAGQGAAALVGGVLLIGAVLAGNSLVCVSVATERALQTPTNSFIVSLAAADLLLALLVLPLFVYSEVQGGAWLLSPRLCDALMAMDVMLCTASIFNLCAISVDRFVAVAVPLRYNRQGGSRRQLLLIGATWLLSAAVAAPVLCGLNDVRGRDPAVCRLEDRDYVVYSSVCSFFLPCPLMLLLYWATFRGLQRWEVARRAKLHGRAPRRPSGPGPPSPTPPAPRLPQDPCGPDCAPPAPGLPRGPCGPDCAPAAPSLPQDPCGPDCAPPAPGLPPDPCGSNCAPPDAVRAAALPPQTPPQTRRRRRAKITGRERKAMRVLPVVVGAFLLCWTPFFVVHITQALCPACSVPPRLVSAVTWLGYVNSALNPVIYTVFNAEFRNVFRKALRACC
The test can be described thus: biochemical.

The target in a further test is D(3) dopamine receptor (Homo sapiens, UniProt P35462). The test can be described thus: biochemical.
Sequence of D(3) dopamine receptor (P35462 whole entry): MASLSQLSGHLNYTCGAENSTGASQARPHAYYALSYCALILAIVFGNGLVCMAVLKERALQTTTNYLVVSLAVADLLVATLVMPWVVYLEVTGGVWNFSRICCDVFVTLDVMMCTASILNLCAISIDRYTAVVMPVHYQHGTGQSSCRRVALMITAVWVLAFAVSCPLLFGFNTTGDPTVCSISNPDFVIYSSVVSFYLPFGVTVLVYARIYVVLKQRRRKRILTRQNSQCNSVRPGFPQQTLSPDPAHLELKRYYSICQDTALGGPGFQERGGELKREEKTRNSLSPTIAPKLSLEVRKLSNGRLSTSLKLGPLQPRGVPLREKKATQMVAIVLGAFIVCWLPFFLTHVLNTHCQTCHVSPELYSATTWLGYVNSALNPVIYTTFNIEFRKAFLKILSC

Bounds are passed on as bounds.

For orientation: Ki means the dissociation constant of the complex between target and ligand, obtained from inhibition or displacement.

Description for D(3) dopamine receptor: Binding affinity towards cloned human Dopamine receptor D3 stably expressed in CHO cells was evaluated using [3H]spiperone as radioligand
Description for D(4) dopamine receptor: Binding affinity towards cloned human Dopamine receptor D4 stably expressed in CHO cells was evaluated using [3H]spiperone as radioligand

Consider `OC1(c2ccc(Cl)cc2)CCN(Cc2c[nH]c3ccccc23)CC1`, for which the inhibition constant Ki worked out at 220 nM at D(4) dopamine receptor and 100 nM on D(3) dopamine receptor.
Consider `CC1CCN(Cc2c[nH]c3ccccc23)CC1`, for which the Ki on D(4) dopamine receptor was determined as 570 nM; on D(3) dopamine receptor, 6700 nM.
On to `c1ccc2c(CN3CCCCC3)c[nH]c2c1`, for which the Ki was greater than 2600 nM on D(4) dopamine receptor and greater than 3700 nM at D(3) dopamine receptor.
Taken in the same sequence, the figures for `c1ccc(C2CCN(Cc3c[nH]c4ccccc34)CC2)cc1` were 25 nM and 95 nM.
As to `c1ccc(N2CCN(Cc3c[nH]c4ccccc34)CC2)cc1`, the inhibition constant (Ki) at D(4) dopamine receptor stood at 8 nM; at D(3) dopamine receptor, 280 nM.
The matching figures for `Ic1ccc(N2CCN(Cc3c[nH]c4ncccc34)CC2)cc1`: 0.51 nM and greater than 4500 nM.
